Experimental data taken from publication PMC11527646, “Pharmacological blockade of the mast cell MRGPRX2 receptor supports investigation of its relevance in skin disorders” (Frontiers in Immunology, 2024).
Where two headings read alike, the source gives them in different places.

Assays:
[1] = target: T1, C3aR1 (Homo sapiens, UniProt Q16581); details: for Effect on C3a-stimulated LAD2 degranulation: increasing concentrations of antagonist
T1 sequence (Q16581 1-482): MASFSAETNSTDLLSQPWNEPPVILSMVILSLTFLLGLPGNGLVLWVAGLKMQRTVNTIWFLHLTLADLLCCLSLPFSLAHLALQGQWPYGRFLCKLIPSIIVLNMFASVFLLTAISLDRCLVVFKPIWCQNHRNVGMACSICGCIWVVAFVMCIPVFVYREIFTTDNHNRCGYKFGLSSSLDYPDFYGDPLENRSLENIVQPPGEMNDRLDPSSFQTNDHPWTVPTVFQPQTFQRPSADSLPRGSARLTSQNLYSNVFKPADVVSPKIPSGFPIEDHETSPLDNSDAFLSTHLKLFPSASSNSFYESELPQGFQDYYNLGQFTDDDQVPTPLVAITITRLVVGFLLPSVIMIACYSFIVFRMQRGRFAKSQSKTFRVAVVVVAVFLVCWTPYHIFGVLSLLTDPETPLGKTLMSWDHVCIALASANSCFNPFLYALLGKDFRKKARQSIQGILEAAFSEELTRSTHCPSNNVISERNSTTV
Source text: Release of β-hexosaminidase from LAD2 cells was followed as a measurement of mast cell degranulation using a method described previously ([4]).
Potency data are presented as mean ± SEM.

[2] = target: T2, monkey MRGPRX2 (Rhesus macaques) (Macaca mulatta, UniProt Q4QXU5); assay: Calcium mobilization in BacMam-transduced U2OS cells; type: cell-based; details: for Antagonist activity: likely due to receptor desensitization upon activation and not real antagonism
T2 construct: expressed in transfected cells; host or cells: U2OS transduced with BacMam virus
T2 sequence (Q4QXU5 whole entry): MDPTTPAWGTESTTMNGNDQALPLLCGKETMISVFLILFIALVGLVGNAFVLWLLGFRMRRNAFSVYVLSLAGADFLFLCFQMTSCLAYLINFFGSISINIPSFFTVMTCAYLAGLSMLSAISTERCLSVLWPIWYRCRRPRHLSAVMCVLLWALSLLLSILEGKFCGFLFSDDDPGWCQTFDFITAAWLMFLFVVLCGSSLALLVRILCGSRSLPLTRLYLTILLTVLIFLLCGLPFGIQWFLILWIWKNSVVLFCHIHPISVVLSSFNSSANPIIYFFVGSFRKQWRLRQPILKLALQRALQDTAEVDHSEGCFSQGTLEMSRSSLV
Procedure: (§1) Cell culture reagents were purchased from Thermo Fisher Scientific unless otherwise stated. The LAD2 human mast cell line was in-licensed from National Institutes of Health (NIH) and routinely cultured in StemPro™-34 SFM with nutrient supplement, 1× GlutaMax™, and recombinant human SCF (100 ng/mL). HEK293-MRGPRX2/Gα15 cells were cultured in DMEM containing 10% FBS. The parental U2OS cells were culture in DMEM/F-12 containing 10% FBS. BacMam virus containing human MRGPRX2 gene or animal orthologs [mouse Mrgprb2 (Gene ID: 243979), rat Mrgprb3 (Gene ID: 691194), dog MRGPRX2 (Gene ID: 102125889), cynomolgus monkey MRGPRX2 (Gene ID: 692078), and rhesus monkey MRGPRX2] were used to transduce U2OS cells for transient expression.
(§2) Supplemental Table 1: Compound A and Compound B are human MRGPRX2 selective antagonists. Antagonist and agonist activities of the two compounds were determined in calcium mobilization assays for human MRGPRX2 and its animal orthologs from various species. The activities were measured in […] (Molecular Devices) instrument using U2OS cells transduced with BacMam virus for transient expression of the relevant receptors. Data are presented as mean ± SEM when applicable.
(§3) Compound A and Compound B up to the highest concentration (100 µM) tested. In the antagonist […]
(§4) Compound A and B, respectively. […]
(§5) MRGPRX2 and Gα15 proteins (Fig. 1). On monkey MRGPRX2 receptors (both Cynomolgus […]
(§6) receptor desensitization upon activation and not real antagonism. […]

[3] = target: T3, monkey MRGPRX2 (Cynomolgus macaques) (Macaca fascicularis, UniProt Q5U9D9); assay: as above; type: cell-based; details: for Antagonist activity: likely due to receptor desensitization upon activation and not real antagonism
T3 construct: expressed in transfected cells; host or cells: U2OS transduced with BacMam virus
T3 sequence (Q5U9D9 1-330): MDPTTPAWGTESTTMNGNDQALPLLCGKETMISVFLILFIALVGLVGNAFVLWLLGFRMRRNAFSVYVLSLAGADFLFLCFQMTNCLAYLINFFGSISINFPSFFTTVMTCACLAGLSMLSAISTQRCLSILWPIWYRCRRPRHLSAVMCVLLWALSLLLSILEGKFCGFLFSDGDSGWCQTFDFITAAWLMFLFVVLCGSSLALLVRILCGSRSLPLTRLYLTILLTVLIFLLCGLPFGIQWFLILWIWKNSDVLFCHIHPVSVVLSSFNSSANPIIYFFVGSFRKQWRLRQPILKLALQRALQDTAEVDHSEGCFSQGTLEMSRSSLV
Procedure: as §1, §2, §3, §4, §5, §6

[4] = system: ion channel and enzyme targets; assay: In vitro assays of the human safety prediction panel; details: data not shown
Source text: Among them, the NK1 receptor with which SP is the canonical and high-affinity endogenous ligand.

[5] = target: T4, MRGPRX2 (Homo sapiens, UniProt Q96LB1); assay: LAD2 mast cell degranulation (β-hexosaminidase release), MRGPRX2 ligand-mediated; type: cell-based; design: human mast cells expressing endogenous MRGPRX2; endogenous in cells; […]; details: for IC50: mean ± SEM; for EC50: agonist mode, no mast cell activator, up to 50 μM tested, read-out: Activation of LAD-2 Cells EC50; for Kb: read-out: pA2 (apparent antagonist affinity, Schild analysis) (converted); for Nature of antagonism: vs Substance P concentration response curves
T4 sequence (Q96LB1 1-330): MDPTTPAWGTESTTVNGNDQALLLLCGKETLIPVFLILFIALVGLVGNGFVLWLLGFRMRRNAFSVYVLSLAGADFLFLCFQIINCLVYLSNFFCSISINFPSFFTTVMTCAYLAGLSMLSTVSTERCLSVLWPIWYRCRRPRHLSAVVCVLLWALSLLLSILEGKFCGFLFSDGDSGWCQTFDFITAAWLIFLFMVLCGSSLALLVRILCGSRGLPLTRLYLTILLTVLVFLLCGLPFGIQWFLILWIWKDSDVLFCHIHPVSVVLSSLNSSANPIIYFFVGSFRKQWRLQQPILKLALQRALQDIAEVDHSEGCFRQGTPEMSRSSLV
Procedure: Two different in vitro human mast cell systems were studied: (a) a human mast cell line, LAD2, established from a patient with mast cell sarcoma; and (b) mast cells freshly isolated from human skin. MRGPRX2 antagonist IC50 values were determined in the LAD2 mast cell degranulation assay using approximately EC80 concentrations for five different MRGPRX2 activating ligands (see Supplementary Figure 1 ).

[6] = target: T5, MRGPRX1 (Homo sapiens, UniProt Q96LB2); assay: GPCR selectivity cellular assay; type: cell-based; details: for EC50: Agonism, read-out: Agonist Activity (EC50); for IC50: Antagonism, read-out: Antagonist Activity (IC50)
T5 construct: expressed in transfected cells
T5 sequence (Q96LB2 whole entry): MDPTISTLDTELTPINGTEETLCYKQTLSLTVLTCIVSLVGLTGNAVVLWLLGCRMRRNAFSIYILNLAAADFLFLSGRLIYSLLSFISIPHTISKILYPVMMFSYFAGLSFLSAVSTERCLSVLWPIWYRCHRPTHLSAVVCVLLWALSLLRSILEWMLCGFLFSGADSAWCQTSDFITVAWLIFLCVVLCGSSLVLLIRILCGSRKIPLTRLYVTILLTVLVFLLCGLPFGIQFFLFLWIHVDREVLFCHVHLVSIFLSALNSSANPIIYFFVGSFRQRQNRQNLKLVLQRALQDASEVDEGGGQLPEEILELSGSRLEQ
Procedure: Antagonist and/or agonist activities of the two compounds were determined in cellular assays for 20 human G-protein coupled receptors (GPCR) beside MRGPRX2. Recombinant over-expression systems in mammalian cells were used for all assays listed in this table. […]
reported as ‘>’ the highest compound concentration allowed in that assay. […]
Agonist Activity (EC50 ) or Antagonist Activity (IC50 ), nM

[7] = target: T4, MRGPRX2; assay: Human ex vivo skin microdialysis, Substance P-stimulated histamine release; type: cell-based; details: Substance P 50 μM; three donors
Procedure: Microdialysis probes with a 3,000-kDa molecular weight cutoff (EP Medical, Copenhagen, Denmark) were primed for 1 h using a basal perfusate consisting of 0.1% human serum albumin in piperazine-N,N′-bis(2-ethanesulfonic acid) (PIPES) buffer to minimize non-specific adsorption to probe components.
Skin specimens measuring approximately 4 cm × 14 cm were excised from the parent skin sample, and subcutaneous fat was removed mechanically. The skin specimens were fixated on Styrofoam and guide cannulas (21G) were inserted intradermally at least 1 cm apart and ≥ 1 cm from the edge of the skin specimen. Ten probes were introduced into each skin specimen by means of the guide cannulas with an intradermal probe span of 20 mm. Probes were perfused at a flow rate of 3.0 μL/min (used throughout the experiment) for 30 min using basal perfusate in order to remove any unspecific histamine release caused by insertion trauma.
Next, the dialysate was collected for 10 min to assess basal skin histamine levels (“basal”). The probes were then switched to perfusion with a perfusate containing antagonists at different concentrations for 60 min to pre-treat the skin specimens and evaluate potential off-target effects, which could present as histamine release caused by antagonist itself (“pre-treatment”). […] Histamine in the dialysates was quantified as described above. […]

[8] = Mast Cell Activator: Compound 48/80 at approx. EC80, read-out: Inhibition of Ligand Mediated LAD-2 Cell Activation and Degranulation IC50

Row | SMILES | IC50 [1] [nM] | Effect on C3a-stimulated LAD2 degranulation [1] | Agonist activity [2] | Antagonist activity [2] | Agonist activity [3] | Antagonist activity [3] | Activity on ion channel and enzyme targets [4] | IC50 [5, 8] [nM] | EC50 [5] [nM] | Kb [5] [nM] | Nature of antagonism [5] | EC50 [6] [nM] | IC50 [6] [nM] | Concentration achieving complete blockade of Substance P response (histamine release) [7] [µM] | further results
1 | CC1(C)C(C(=O)Nc2ccccn2)C1(C)C [Compound A] | > 50000 | lack of an effect | weak agonist activities | very weak antagonist activities | weak agonist activities | very weak antagonist activities | inactive | 232 ± 26 | > 50000 | 25.7 | partly surmountable | > 100000 | > 100000 | 3 | IC50 ([5]; Inhibition of Ligand Mediated LAD-2 Cell Activation and Degranulation IC50, Mast Cell Activator: Cortistatin-14 at approx. EC80): 22.8 nM; IC50 ([5]; Inhibition of Ligand Mediated LAD-2 Cell Activation and Degranulation IC50, Mast Cell Activator: PACAP-27 at approx. EC80): 61.2 ± 14.3 nM; IC50 ([5]; Inhibition of Ligand Mediated LAD-2 Cell Activation and Degranulation IC50, Mast Cell Activator: PAMP-12 at approx. EC80): 63.3 ± 6.2 nM; IC50 ([5]; Inhibition of Ligand Mediated LAD-2 Cell Activation and Degranulation IC50, Mast Cell Activator: Substance P (1 μM, approx. EC80)): 32.4 nM
2 | C[C@@H](C(=O)Nc1cnc(Oc2ccc(F)cc2F)cn1)N1CCC(F)(F)[C@@H](c2cc[n+]([O-])cc2)C1 [Compound B] | > 50000 | lack of an effect | weak agonist activities | very weak antagonist activities | weak agonist activities | very weak antagonist activities | inactive | 4 ± 0.3 | > 50000 | 0.891 | insurmountable | > 100000 | > 100000 | 0.03 | Effect on Substance P maximal response ([5]; 7.6 nM antagonist): dampen SP’s maximal response; Effect on degranulation response to highest Substance P concentration ([5]; 20 nM antagonist, Substance P 50 μM): abolish the degranulation response; IC50 ([5]; Mast Cell Activator: Cortistatin-14 at approx. EC80, read-out: Inhibition of Ligand Mediated LAD-2 Cell Activation and Degranulation IC50): 1 nM; IC50 ([5]; Mast Cell Activator: PACAP-27 at approx. EC80, read-out: Inhibition of Ligand Mediated LAD-2 Cell Activation and Degranulation IC50): 1.8 ± 0.1 nM; IC50 ([5]; Mast Cell Activator: PAMP-12 at approx. EC80, read-out: Inhibition of Ligand Mediated LAD-2 Cell Activation and Degranulation IC50): 2.6 ± 0.1 nM; IC50 ([5]; Mast Cell Activator: Substance P (1 μM, approx. EC80), read-out: Inhibition of Ligand Mediated LAD-2 Cell Activation and Degranulation IC50): 1.8 ± 0.1 nM
